Assay results: EPA's ToxValDB 9.5
Several values for one entry are separate records, joined by “and”; a condition that tells them apart may be missing. Equal entries are not always repeated.

How the values were obtained:
Rattus norvegicus [1] = system: Rattus norvegicus
Rattus norvegicus [2] = conditions: M/F
Rattus norvegicus [3] = conditions: Hershberger; duration: 10 days; oral; gavage; Sprague-Dawley; inactive + Negative + neither + negative
Oryctolagus sp. = conditions: for LD50: acute, dermal
Rattus norvegicus [4] = conditions: for LC50 / LD50: acute
Rattus norvegicus [5] = conditions: oral
[6] = chronic, inhalation, increased kidney, adrenal and pituitary weight
[7] = developmental, inhalation, Reduced maternal weight gain
[8] = reproduction developmental, oral, reduced body weight gain in f1 females
[9] = short-term, duration: 28 days, oral, diet, Sprague-Dawley
[10] = short-term, duration: 28 days, gavage, M, Sprague-Dawley, Clinical Observation: Locomotor activity decrease, Salivation + Blood Chemistry: Ch E decrease
[11] = subchronic, oral, kidney lesions
[12] = chronic, duration: 2 years, oral, diet, reduced body weight
[13] = short-term, duration: 4 weeks, oral, diet, Sprague-Dawley
[14] = chronic, duration: 2 years, oral, diet, reduced weight gain, organ weight changes, increased mortality
[15] = reproduction developmental, oral, kidney, spleen, liver, and bone marrow toxicity
[16] = subchronic, duration: 90 days, oral, gavage, Sprague-Dawley

With `C=C(Cl)CCl` [2,3-Dichloro-1-propene] the LOAEL (Rattus norvegicus [1]; short-term, duration: 11 days, inhalation, M/F, Fischer 344, respiratory) was 22.7 mg/m3.

`CCCCC(C)=O` [2-Hexanone] gave an LOAEL (Rattus norvegicus [1]; chronic, duration: 13 months, oral, drinking water, M, Sprague-Dawley, neurological) of 143 mg/kg-day.

Molecule `FC(F)Cl` [Chlorodifluoromethane] has an LOAEL (Rattus norvegicus [2]; [6]) of 177000 mg/m3, an NOAEL (Rattus norvegicus [2]; [6]) of 35400 mg/m3 and an LOAEL (Rattus norvegicus [2]; [7]) of 177000 mg/m3. It also gave an NOAEL (Rattus norvegicus [2]; [7]) of 3540 mg/m3.

`CC(C)=CC1C(C(=O)OCc2coc(Cc3ccccc3)c2)C1(C)C` (configuration not stated) [Resmethrin] was tested, and the LEL (Rattus norvegicus [2]; reproduction developmental, oral, reproductive toxicity) was 25 mg/kg-day.

`CC(C)Oc1cccc(NC(=O)c2ccccc2C(F)(F)F)c1` [Flutolanil] gave an NOEL (Rattus norvegicus [3]) of 1000 mg/kg-day and an LEL (Rattus norvegicus [2]; reproduction developmental, oral, Decreased body weight and body weight gains in both doses increased liver weights at high dose) of 63.7 mg/kg-day.

Molecule `COC(=O)Nc1cccc(OC(=O)Nc2cccc(C)c2)c1` [Phenmedipham] has an NOAEL (Rattus norvegicus [2]; chronic, duration: 2 years, oral, diet, no effects) of 25 mg/kg-day.

Work on `O=C(CCl)c1ccccc1` [2-Chloroacetophenone] yielded an LOAEL (Rattus norvegicus [2]; chronic, inhalation, squamous hyperplasia of the nasal respiratory epithelium) of 1 mg/m3.

Work on `[Mo]` [Molybdenum] yielded an NOAEL (Rattus norvegicus [1]; subchronic, duration: 90 days, oral, diet, M/F, Sprague-Dawley, renal) of 17 mg/kg-day.

With `CCOC(C)(C)C` [Ethyl t-butyl ether] the NOAEL (Rattus norvegicus [2]; chronic, duration: 2 years, inhalation, Fischer 344, Increased absolute kidney weight in female rats) was 6270 mg/m3.

`CNC(=O)N(C)c1nnc(C(C)(C)C)s1` [Tebuthiuron] gave an LEL (Rattus norvegicus [2]; [8]) of 14 mg/kg-day and an NOEL (Rattus norvegicus [2]; [8]) of 7 mg/kg-day.

Molecule `Cc1ccc(OP(=O)(Oc2ccc(C)cc2)Oc2ccc(C)cc2)cc1.Cc1cccc(OP(=O)(Oc2cccc(C)c2)Oc2cccc(C)c2)c1.Cc1ccccc1OP(=O)(Oc1ccccc1C)Oc1ccccc1C` [Tris(methylphenyl) phosphate] has an LD50 (Oryctolagus sp.) of over 10000 mg/kg, an LC50 (Rattus norvegicus [4]; Inhalation, Sprague-Dawley) of over 5.2 µg/mL and an LC50 (Rattus norvegicus [4]; inhalation, Wistar) of under 200 µg/mL. For the same molecule, the LD50 (Rattus norvegicus [4]; oral, gavage, Wistar) was over 20000 mg/kg, the “LOAEL (% diet)” value (Rattus norvegicus [4]; [9]) was 0.5 and the “NOAEL (% diet)” value (Rattus norvegicus [4]; [9]) was 0.1. The NOAEL (Rattus norvegicus [5]; [10]) was 200 mg/kg-day, the NOEL (Rattus norvegicus [5]; [10]) was under 40 mg/kg-day and the NOEL (Rattus norvegicus [5]; subchronic, duration: 13 weeks, diet, F, Fischer 344, Clinical Observation: Emaciation + Body Weight Changes: decrease + Food Consumption: decrease + Hematology: Hct decrease, RBC decrease, Hgb …) was 65 mg/kg-day. For the same molecule, the NOEL (Rattus norvegicus [5]; subchronic, duration: 13 weeks, diet, M/F, Fischer 344, Clinical Observation: Emaciation + Body Weight Changes: decrease + Food Consumption: decrease + Hematology: Hct decrease, RBC decrease, Hgb …) was under 86.4 mg/kg-day and the NOEL (Rattus norvegicus [5]; subchronic, duration: 13 weeks, gavage, M/F, Fischer 344, Body Weight Changes: decrease + Hematology: Hct decrease, Hgb decrease, RBC decrease + Blood Chemistry: Ch E decrease + Absolute Organ …) was under 50 mg/kg-day.

`Clc1cc(Cl)c(Cl)cc1Cl` [1,2,4,5-Tetrachlorobenzene] gave an LOAEL (Rattus norvegicus [2]; [11]) of 3.4 mg/kg-day and an NOAEL (Rattus norvegicus [2]; [11]) of 0.34 mg/kg-day.

For `COC(=O)c1ccccc1S(=O)(=O)NC(=O)Nc1nc(C)nc(OC)n1` [Metsulfuron-methyl], the LEL (Rattus norvegicus [2]; [12]) was 250 mg/kg-day and the NOEL (Rattus norvegicus [2]; [12]) was 25 mg/kg-day.

In the case of `CC(C)CC(C)Nc1ccc(Nc2ccccc2)cc1` (configuration not stated) [6PPD], the LD50 (Oryctolagus sp.; occlusive, New Zealand) is reported as over 7940 mg/kg, the NOAEL (Oryctolagus sp.; reproduction developmental, duration: 13 days, oral, F, New Zealand) is reported as 30 mg/kg-day and the LD50 (Rattus norvegicus [4]; oral, Sprague-Dawley) is reported as over 5000 mg/kg. The LD50 (Rattus norvegicus [4]; oral, gavage, Sprague-Dawley) was 3580 mg/kg, the NOAEL (Rattus norvegicus [4]; developmental, duration: 10 days, oral, gavage, Sprague-Dawley) was over 250 mg/kg-day and the NOAEL (Rattus norvegicus [4]; reproduction developmental, duration: 23 weeks, oral, diet, Sprague-Dawley, generation: F0) was 100 ppm. The NOAEL (Rattus norvegicus [4]; reproduction developmental, duration: 23 weeks, oral, diet, Sprague-Dawley, generation: F1) was 1000 ppm, the NOAEL (Rattus norvegicus [4]; reproduction developmental, duration: 23 weeks, oral, diet, Sprague-Dawley, generation: F2) was 1000 ppm and the NOAEL (Rattus norvegicus [4]; reproduction developmental, duration: 10 days, oral, gavage, F, Sprague-Dawley) was 50 mg/kg-day. The NOAEL (Rattus norvegicus [4]; reproduction developmental, duration: 21 days, oral, gavage, Sprague-Dawley, generation: F0) was over 1000 ppm, the NOAEL (Rattus norvegicus [4]; reproduction developmental, duration: 21 days, oral, gavage, Sprague-Dawley, generation: F1) was over 1000 ppm and the LOAEL (Rattus norvegicus [4]; short-term, duration: 4 weeks, inhalation, particle, Sprague-Dawley) was 50 mg/m3. The NOAEL (Rattus norvegicus [4]; subchronic, duration: 90 days, oral, diet, Sprague-Dawley) was 24 mg/kg-day.

Molecule `CCCCC(CC)COC(=O)c1c(Br)c(Br)c(Br)c(Br)c1C(=O)OCC(CC)CCCC` (configuration not stated) [Bis(2-ethylhexyl) tetrabromophthalate] has an LD50 (Oryctolagus sp.; New Zealand) of over 3090 mg/kg, an LD50 (Rattus norvegicus [4]; oral, gavage, Crl:CD(SD)) of over 5000 mg/kg and an LOAEL (Rattus norvegicus [4]; [13]) of 20000 ppm. The NOAEL (Rattus norvegicus [4]; [13]) was 2000 ppm.

In the case of `CC(C)C(C)(N)C#N` (configuration not stated) [2-Amino-2,3-dimethylbutanenitrile], the LD50 (Oryctolagus sp.; occlusive, New Zealand) is reported as 23 mg/kg, the LC50 (Rattus norvegicus [4]; inhalation, Sprague-Dawley) is reported as 422 mg/m3 and 335 mg/m3 and the LD50 (Rattus norvegicus [4]; oral, gavage, Sprague-Dawley) is reported as 83 mg/kg. It also gave an NOAEL (Rattus norvegicus [4]; short-term, duration: 28 days, dermal, occlusive, Charles River (Sprague-Dawley derived)) of 3 mg/kg-day.

For `CC1=C(C(=O)Nc2ccccc2)SCCO1` [Carboxin], the LEL (Rattus norvegicus [2]; [14]) was 30 mg/kg-day and the NOEL (Rattus norvegicus [2]; [14]) was 10 mg/kg-day.

For `CC(C)OC(=O)Nc1cccc(Cl)c1` [Chlorpropham], the LEL (Rattus norvegicus [2]; [15]) was 150 mg/kg-day, the NOEL (Rattus norvegicus [2]; [15]) was 50 mg/kg-day and the NOAEL (Rattus norvegicus [5]; subchronic, duration: 90 days, diet, M/F, Fischer 344, Clinical Observation: Pale + Body Weight Changes: decrease + Hematology: RBC decrease, HGB decrease, HCT decrease, MCV increase, MCH …) was under 720 mg/kg-day.

`C[CH2][Pb]([CH2]C)([CH2]C)[CH2]C` [Tetraethyl lead] showed an LOAEL (Rattus norvegicus [2]; subchronic, oral, histopathology: liver and thymus) of 0.0017 mg/kg-day.

With `COc1c(Cl)ccc(Cl)c1C(=O)[O-].[Na+]` [Sodium dicamba] the LD50 (Oryctolagus sp.; occlusive, New Zealand) was over 400 mg/kg and the LD50 (Rattus norvegicus [4]; oral, Sprague-Dawley) was over 1000 mg/kg.

`O=C(OCC1CCC2OC2C1)C1CCC2OC2C1` (configuration not stated) [ECC] was tested, and the LD50 (Oryctolagus sp.; occlusive, New Zealand) was over 20 mg/kg, the LD50 (Rattus norvegicus [4]; oral, gavage, Sprague-Dawley) was 5000 mg/kg and the NOAEL (Rattus norvegicus [4]; developmental, duration: 14 days, oral, gavage, Sprague-Dawley) was 125 mg/kg-day. The NOAEL (Rattus norvegicus [4]; reproduction developmental, duration: 14 days, oral, gavage, F, Sprague-Dawley) was 25 mg/kg-day, the NOAEL (Rattus norvegicus [4]; reproduction developmental, duration: 90 days, oral, gavage, Sprague-Dawley, generation: F0) was at least 500 mg/kg-day and the LOAEL (Rattus norvegicus [4]; short-term, duration: 14 days, oral, gavage, Sprague-Dawley) was 100 mg/kg-day. For the same molecule, the LOAEL (Rattus norvegicus [4]; [16]) was 50 mg/kg-day and the NOAEL (Rattus norvegicus [4]; [16]) was 5 mg/kg-day.
